Laboratory results reported in patent US20250161338A1, “Compounds for Anti-aging Intervention” (AGENCY FOR SCIENCE, TECHNOLOGY AND RESEARCH, priority 2022, published 2025).
Structures can show the parent of a compound that is named as a salt.

Legend:
[1] = test system: prototrophic yeast strain (CEN.PK113-7D); assay: Propidium iodide fluorescence-based CLS method in yeast (incl. high-throughput screening); type: cell-based, Saccharomyces cerevisiae; conditions: concentration tested 100 μM; for Yeast CLS increase: Yes/No call of the screen; for PI intensity: solvent DMSO or water, chronological age point Day 7 (72 h growth = Day 1), lower = more survival;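 on PI intensity: untreated reference is eight DMSO and water control wells per plate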
Description: Yeast strain was recovered from frozen glycerol stock at 30° C. on YPD agar medium. Yeast was left to propagate in SD medium overnight at 30° C. with shaking at 220 revolutions per minute (rpm). Cells propagated overnight were diluted to a starting optical density at 600 nm (OD600) of approximately 0.2 in fresh SD medium to begin the chronological lifespan (CLS) experiments.
(§1) CLS experiments were performed in 96-well plates with 200 μL yeast culture. Cellular inoculums were transferred into 96-well plates containing serially double-diluted concentrations (0 to 10 nM) of rapamycin. Cellular inoculum was transferred into 96-well plates containing serially double-diluted concentrations (0 to 8 mM) of 2,5-anhydro-D-mannitol, D-fructose, D-mannitol, D-maltose, and D-sorbitol in SD medium. Cells were incubated at 30° C., and the growth was measured at different time points. […] Cell survival was quantified at various age time points by three different approaches: (i) PI fluorescence-based method, (ii) outgrowth in YPD liquid medium, and (iii) spotting assay (FIG. 1).
Yeast cells (40 μL) from different age time points were transferred into a second 96-well plate (different to the 96-well plate in which the CLS analysis as outlined above was performed). Cells were washed and incubated in 100 μL 1×phosphate buffered saline (PBS) with propidium iodide (PI) (5 μg/mL) for 15 minutes in the dark. Positive and negative control samples were included for quantitative analysis. Positive control (cells boiled at 100° C. for 15 minutes) was PI-stained and processed in the same 96-well plate. Samples without PI-stained cells served as the negative control. After incubation, cells were washed and resuspended in 100 μL PBS. The fluorescence reading of the samples (excitation and emission wavelengths at 535 nm and 617 nm, respectively) and OD600 were measured with a microplate reader (BioTek, Winooski, Vermont, United States). The fluorescence intensity of each sample was normalized with OD600. The background fluorescence signal of the unstained negative sample was subtracted from the normalized fluorescence intensity of each sample. The obtained fluorescence intensity of the positive control (boiled dead cells) was considered 0% cell survival. Cell death was validated by allowing the boiled dead cells to grow in medium. Cell survival at different age time points of samples were calculated by normalizing the fluorescence intensity with positive control sample (boiled cells).
High-throughput screening of various chemicals was tested using the same protocol for the propidium iodide fluorescence-based method as described above. The prototrophic yeast strain (CEN.PK113-7D) was grown in the synthetic defined medium with different chemical reagents at their respective single testing concentration (Table 1) in addition to eight replicates of DMSO and water controls in 96-well plates at 30° C.

[2] = test system: prototrophic yeast strain (CEN.PK113-7D); assay: Yeast outgrowth in YPD liquid medium (CLS of aged cells); type: cell-based, Saccharomyces cerevisiae; conditions: for Outgrowth: concentration tested 100 μM, OD600 nm after 24 h in YPD at 30° C., age point day 14; for aged cell survival in yeast: various concentrations, outgrowth relative to Day 2 (FIGS. 22A to D)
Description: as §1
Outgrowth (OD600) of aged cells was measured by the microplate reader. Quantification of cell survival for each age point was determined as relative to Day 1 (considered 100% cell survival). This quantification was performed by using the formula,
[formula] • where OutgrowthDay n refers to the OD600 nm absorbance reading recorded on a specific day, OutgrowthDay 1 refers to the OD600 nm absorbance reading recorded on the first day where 100% cell survival is assumed.
The CLS of the aged cells was further determined by the yeast outgrowth in YPD liquid medium method as described above. […] At chronological age point day 14, 3-μL of culture were transferred to a second 96-well plate containing 200 μL YPD medium.

In the case of C#CC1(O)CC[C@H]2[C@@H]3CCC4=CC(=O)CC[C@@H]4[C@H]3CC[C@@]21CC (mixture of isomers) [Norgestrel, reference compound], the “Yeast CLS increase” value [1] is reported as “No”, the PI intensity [1] is reported as 75,338.8 and the Outgrowth [2] is reported as 0.1.

In the case of O=C(O)C(O)Cc1ccccc1 (racemic) [DL-3-Phenyllactic acid], the “Yeast CLS increase” value [1] is reported as “No”, the PI intensity [1] is reported as 65,266.9 and the Outgrowth [2] is reported as 0.1.

In the case of C[S+](C)CCC(N)C(=O)O.[Cl-] (racemic) [DL-Methionine methylsulfonium (chloride)], the “Yeast CLS increase” value [1] is reported as “No”, the PI intensity [1] is reported as 66,281.7 and the Outgrowth [2] is reported as 0.1.

CC(C)(CO)C(O)C(=O)NCCCO (racemic) [DL-Panthenol] was tested, and the “Yeast CLS increase” value [1] was “No”, the PI intensity [1] was 71,468.6 and the Outgrowth [2] was 0.1.

NC(CO)C(=O)O (racemic) [DL-Serine] was tested, and the “Yeast CLS increase” value [1] was “Yes”, the PI intensity [1] was 33,155.7 and the Outgrowth [2] was 1.1.

For O=C[C@H](O)[C@H](O)[C@H](O)CO (single isomer, unassigned) [D-Ribose(mixture of isomers)], the “Yeast CLS increase” value [1] was “No”, the PI intensity [1] was 60,023.1 and the Outgrowth [2] was 0.1.

O=C(O)c1ccc(O)cc1O [2,4-Dihydroxybenzoic acid] was tested, and the “Yeast CLS increase” value [1] was “No”, the PI intensity [1] was 76,326.3 and the Outgrowth [2] was 0.1.

With O=C(O)c1ccco1 [2-Furoic acid] the “Yeast CLS increase” value [1] was “No”, the PI intensity [1] was 72,748.2 and the Outgrowth [2] was 0.1.

For Oc1ccc2ccccc2c1 [2-Naphthol], the “Yeast CLS increase” value [1] was “No”, the PI intensity [1] was 72,298.9 and the Outgrowth [2] was 0.1.

For CCCC(=O)C(=O)O [2-Oxovaleric acid], the “Yeast CLS increase” value [1] was “No”, the PI intensity [1] was 61,246.4 and the Outgrowth [2] was 0.1.

In the case of CC(C(=O)O)c1ccccc1 (stereo not shown) [2-Phenylpropionic acid], the “Yeast CLS increase” value [1] is reported as “No”, the PI intensity [1] is reported as 66,998.4 and the Outgrowth [2] is reported as 0.1.

In the case of Nc1ncnc2c1ncn2[C@H]1C[C@H](O)[C@@H](CO)O1 [2′-Deoxyadenosine], the “Yeast CLS increase” value [1] is reported as “No”, the PI intensity [1] is reported as 70,796.4 and the Outgrowth [2] is reported as 0.1.

COc1ccc(C=CC(=O)O)cc1OC [3,4-Dimethoxycinnamic acid] was tested, and the “Yeast CLS increase” value [1] was “No”, the PI intensity [1] was 70,914.2 and the Outgrowth [2] was 0.1.

In the case of COc1ccc(CC(=O)O)cc1OC [3,4-Dimethoxyphenylacetic acid], the “Yeast CLS increase” value [1] is reported as “No”, the PI intensity [1] is reported as 70,394.7 and the Outgrowth [2] is reported as 0.1.

In the case of O=C(O)c1cc(O)cc(O)c1 [3,5-Dihydroxybenzoic acid], the “Yeast CLS increase” value [1] is reported as “No”, the PI intensity [1] is reported as 59,369.7 and the Outgrowth [2] is reported as 0.1.

For N[C@@H](Cc1ccc(O)c(Cl)c1)C(=O)O [3-Chloro-L-tyrosine], the “Yeast CLS increase” value [1] was “No”, the PI intensity [1] was 67,122.0 and the Outgrowth [2] was 0.1.

In the case of CCc1ccc(O)cc1 [4-Ethylphenol], the “Yeast CLS increase” value [1] is reported as “No”, the PI intensity [1] is reported as 58,041.7 and the Outgrowth [2] is reported as 0.1.

COc1ccc(C=CC(=O)O)cc1 [4-Methoxycinnamic acid] was tested, and the “Yeast CLS increase” value [1] was “No”, the PI intensity [1] was 89,890.5 and the Outgrowth [2] was 0.1.

In the case of Cc1cc(=O)oc2cc(O)ccc12 [4-Methylumbelliferone], the “Yeast CLS increase” value [1] is reported as “No”, the PI intensity [1] is reported as 90,234.6 and the Outgrowth [2] is reported as 0.1.

With CC(=O)c1ccc(O)c(C(=O)O)c1 [5-Acetylsalicylic acid] the “Yeast CLS increase” value [1] was “No”, the PI intensity [1] was 63,538.6 and the Outgrowth [2] was 0.1.

For O=c1[nH]cc(F)c(=O)[nH]1 [5-fluorouracil, reference compound], the “aged cell survival in yeast” value [2] was “survived longer as compared to those without treatment”.

In the case of CC(C)CCC[C@@H](C)[C@H]1CC[C@H]2[C@@H]3CC[C@H]4CC(=O)CC[C@]4(C)[C@H]3CC[C@]12C [5α-Cholestan-3-one], the “Yeast CLS increase” value [1] is reported as “No”, the PI intensity [1] is reported as 62,022.6 and the Outgrowth [2] is reported as 0.1.

C[C@H](O)[C@H](O)c1cnc2nc(N)[nH]c(=O)c2n1 [6-Biopterin] was tested, and the “Yeast CLS increase” value [1] was “No”, the PI intensity [1] was 75,974.5 and the Outgrowth [2] was 0.1.

In the case of CC(C)CCC[C@](C)(O)[C@H]1CC[C@H]2[C@@H]3CC=C4C[C@@H](O)CC[C@]4(C)[C@H]3CC[C@@]21C [20(S)-Hydroxycholesterol], the “Yeast CLS increase” value [1] is reported as “No”, the PI intensity [1] is reported as 75,450.9 and the Outgrowth [2] is reported as 0.1.

NC[C@H](CC(=O)O)c1ccc(Cl)cc1 [(R)-Baclofen, reference compound] was tested, and the “Yeast CLS increase” value [1] was “No”, the PI intensity [1] was 61,049.3 and the Outgrowth [2] was 0.1.

CC(C)=CCC[C@@H](C)CCO [(R)-Citronellol] was tested, and the “Yeast CLS increase” value [1] was “No”, the PI intensity [1] was 75,290.6 and the Outgrowth [2] was 0.1.

For O=C(O)[C@H]1CCCN1 [(R)-pyrrolidine-2-carboxylic acid], the “Yeast CLS increase” value [1] was “No”, the PI intensity [1] was 80,551.7 and the Outgrowth [2] was 0.1.

In the case of O=C(O)[C@@H](O)Cc1ccccc1 [(S)-2-Hydroxy-3-phenylpropanoic acid], the “Yeast CLS increase” value [1] is reported as “No”, the PI intensity [1] is reported as 72,969.5 and the Outgrowth [2] is reported as 0.1.

For Cn1cc(C[C@H](N)C(=O)O)c2ccccc21 [(S)-Indoximod], the “Yeast CLS increase” value [1] was “No”, the PI intensity [1] was 78,648.2 and the Outgrowth [2] was 0.1.

With Oc1cc(O)c2c(c1)O[C@H](c1cc(O)c(O)c(O)c1)[C@H](O)C2 [(−)-Epigallocatechin] the “Yeast CLS increase” value [1] was “No”, the PI intensity [1] was 62,025.6 and the Outgrowth [2] was 0.1.

With N[C@H](C(=O)O)[C@@H]1CC(Cl)=NO1 [Acivicin] the “Yeast CLS increase” value [1] was “Yes”, the PI intensity [1] was 41,066.2 and the Outgrowth [2] was 1.0.

With CCCCC[C@H](CC(=O)NO)C(=O)N[C@H](C(=O)N1CCC[C@H]1CO)C(C)C [Actinonin] the “Yeast CLS increase” value [1] was “No”, the PI intensity [1] was 75,254.2 and the Outgrowth [2] was 0.1.

COCCCOc1cc(C[C@@H](C[C@H](N)[C@@H](O)C[C@H](C(=O)NCC(C)(C)C(N)=O)C(C)C)C(C)C)ccc1OC.COCCCOc1cc(C[C@@H](C[C@H](N)[C@@H](O)C[C@H](C(=O)NCC(C)(C)C(N)=O)C(C)C)C(C)C)ccc1OC.O=C(O)/C=C/C(=O)O [Aliskiren (hemiumarate), reference compound] was tested, and the “Yeast CLS increase” value [1] was “No”, the PI intensity [1] was 73,607.3 and the Outgrowth [2] was 0.1.

In the case of O=C1c2c(O)cccc2[C@@H]([C@@H]2O[C@H](CO)[C@@H](O)[C@H](O)[C@H]2O)c2cc(CO)cc(O)c21 [Aloin B], the “Yeast CLS increase” value [1] is reported as “No”, the PI intensity [1] is reported as 89,712.0 and the Outgrowth [2] is reported as 0.1.

For Nc1c(Br)cc(Br)cc1CN[C@H]1CC[C@H](O)CC1 [Ambroxol (hydrochloride), reference compound], the “Yeast CLS increase” value [1] was “No”, the PI intensity [1] was 63,509.0 and the Outgrowth [2] was 0.1.

For NCCCNCCSP(=O)(O)O [Amifostine, reference compound], the “Yeast CLS increase” value [1] was “No”, the PI intensity [1] was 69,013.2 and the Outgrowth [2] was 0.2.

In the case of CC(CCC(=O)NCC(=O)O)C1CCC2C3CCC4CC(O)CCC4(C)C3CC(O)C12C (stereo not shown) [Glycodeoxycholic Acid], the PI intensity [1] is reported as 68,981.6.

With COc1c(O)cc(O)c2c(=O)cc(-c3ccccc3)oc12 [Wogonin] the “Yeast CLS increase” value [1] was “No” and the PI intensity [1] was 76,348.2.

For CC(C)c1c(C(=O)Nc2ccccc2)c(-c2ccccc2)c(-c2ccc(F)cc2)n1CC[C@@H](O)C[C@@H](O)CC(=O)O [atorvastatin, reference compound], the “aged cell survival in yeast” value [2] was “survived longer as compared to those without treatment”.

With CN(Cc1cnc2nc(N)nc(N)c2n1)c1ccc(C(=O)N[C@@H](CCC(=O)O)C(=O)O)cc1 [methotrexate, reference compound] the “aged cell survival in yeast” value [2] was “survived longer as compared to those without treatment”.

hemin [reference compound] was tested, and the “aged cell survival in yeast” value [2] was “survived longer as compared to those without treatment”.
